Test system: WT mice
Assay: Meningeal lymphatic vessel ablation (Visudyne plus photoconversion): lymphatic morphology
Assay type: in vivo, mouse
Settings: 1 week after Visudyne i.c.m. plus transcranial photoconversion
Description: Adult 2 months-old WT mice were injected (i.c.m.) with Visudyne (5 μL) followed by a transcranial photoconversion step (Vis./photo.) to ablate meningeal lymphatic vessels. Control mice were injected with Visudyne without photoconversion (Vis.). One week later, mice were injected with 5 μL of a suspension of fluorescent microspheres (1 μm in diameter) into the CSF and 15 minutes later the lymphatic vessel afferent to the deep cervical lymph node (dCLN) was imaged by in vivo stereomicroscopy. Representative images of skull cap show microspheres and lymphatic vessels stained for LYVE-1 around the confluence of sinuses (COS) and transverse sinus (TS) at the dorsal brain meninges or around the sigmoid (SS) and petrosquamosal (PSS) sinuses at the basal brain meninges (scale bars, 500 μm). […]
Immunohistochemistry, imaging and quantifications. […]

## verteporfin [Visudyne]
  lymphatic vasculature lining the transverse sinus (dorsal meninges): efficient ablation
  lymphatic vessels around the SS and PSS (basal meninges): no significant changes

Reference: patent US20230067811A1, “MODULATING LYMPHATIC VESSELS IN NEUROLOGICAL DISEASE” (University of Virginia Patent Foundation, priority 2020, published 2023)
